The values that follow come from patent US20110028345A1, “METHODS TO CHARACTERIZE CELL REPROGRAMMING AND USES THEREOF” (CORNING INCORPORATED, priority 2009, published 2011).

Each structure is given as a SMILES string.

For experiment [1], the system named is differentiated ReNcell cells (endogenous dopamine receptors). The experiment in a line: Epic RWG biosensor DMR assay on the neuronal cell system differentiated from ReNcell VM. It is filed as cell-based, human. The method, then: For cell assay on Epic, undifferentiated cells were typically seeded using ˜3×10^3 cells per well in 50 μl of the corresponding culture medium in the biosensor microplate freshly coated with laminin, and were cultured at 37° C. under air/5% CO2. […] The medium was replaced with fresh ReNcell NSC Maintenance Medium every 2-3 days for 10 days. The confluency for all cells at the time of assays was ˜95% to 100%.
(§1) For biosensor cellular assays, compound solutions were made by diluting the stored concentrated solutions with the HBSS (1× Hanks balanced salt solution, plus 20 mM Hepes, pH 7.1), and transferred into a 384 well polypropylene compound storage plate to prepare a compound source plate. […] Afterwards, a 2 to 10 min continuous recording was carried out to establish a baseline, and to ensure that the cells reached a steady state.

In experiment [2] the test system is undifferentiated and differentiated ReN cells. The experiment in a line: DMR marker panel profiling, differentiated versus undifferentiated ReN cells. It is filed as cell-based, human. As to conditions: markers at 10 μM (dopamine and glucagons like peptide 128 μM); FIG. 9-11. The method, then: The confluency for all cells at the time of assays was ˜95% to 100%.
as §1

For experiment [3], the system named is ReNcell progenitor cells. As to conditions: 128 micromolar. The procedure:
Afterwards, a 2 to 10 min continuous recording was carried out to establish a baseline, and to ensure that the cells reached a steady state. Cellular responses were then triggered by transferring 10 μl of the compound solutions into the cell assay plate using the on-board liquid handler.
Epic® wavelength interrogation system (Corning Inc., Corning, N.Y.) was used for whole cell sensing. This system consists of a temperature-control unit, an optical detection unit, and an on-board liquid handling unit with robotics. The detection unit is centered on integrated fiber optics, and enables kinetic measures of cellular responses with a time interval of ˜15 sec. The compound solutions were introduced by using the on-board liquid handling unit (i.e., pippetting).
For biosensor cellular assays, compound solutions were made by diluting the stored concentrated solutions with the HBSS (1× Hanks balanced salt solution, plus 20 mM Hepes, pH 7.1), and transferred into a 384 well polypropylene compound storage plate to prepare a compound source plate. Two compound source plates were made separately when a two-step assay was performed. […] Both the cell assay plate and the compound source plate(s) were then incubated in the hotel of the reader system. After incubation the baseline wavelengths of all biosensors in the cell assay microplate were recorded and normalized to zero. […]

With `NCCc1ccc(O)c(O)c1` [dopamine], the “DMR signal 10 days after differentiation and maturation” value in experiment [1] (128 micromolar, 10 days after differentiation (FIG. 8D)) is “distinct DMR signal which contains additional contributions from endogenous D1 receptors”. In experiment [1] (amplitudes 50 min after stimulation as a function of concentration (FIG. 7D)), the “dose dependence of the DMR signal” value is recorded as “biphasic dose-dependent DMR signal”. In addition, the “DMR signal upon stimulation” value in experiment [1] (differentiated ReNcell cells, PD128907 and A68930 16 micromolar, dopamine 128 micromolar (FIG. 7A-C)) is on record as “small but reproducible DMR signal”. In experiment [1] (differentiated cells, high doses), the “DMR signal at high doses” value was “close to the simple sum of both A68390 and PD129807 DMR signals”. For the same compound, the “DMR signal at low doses” value in experiment [1] (differentiated cells, low doses (<4000 nM)) was “DMR signal similar to that induced by A68390”. The “receptor to which the DMR signal is attributed” value in experiment [1] (differentiated cells, same doses as FIG. 7A-C) was “can activate both D1 and D2 receptors”. Further, the “specificity of the marker DMR signal for the differentiation state” value in experiment [2] is “non-specific to both the undifferentiated and differentiated ReN cells”. For the same compound, in experiment [3] (3 hr after attachment on laminin coated biosensor surface (FIG. 8B)), the “DMR signal 3 hr after attachment” value is recorded as “small but reproduced DMR signal”. Further, the “DMR signal after 4 days undifferentiated culture” value in experiment [3] (4 days in growth factor rich medium (FIG. 8C)) is “distinct DMR signal (FIG. 8C), which was confirmed to be due to the activation of the endogenous D2 receptor”.
